Reference: patent US6391899B1, “Compounds and compositions for treating tissue ischemia” (North Shore—Long Island Jewish Research Institute, priority 1998, dated 2002)
Read-outs that look alike come from different tables or passages of the source.

Columns and labels:
[1] = test system: neuronal cell cultures (HTB11); test: Apoptosis and cell death detection in neuronal cells (TUNEL, Annexin V, DNA electrophoresis, scatter analysis); type: cell-based, human; settings: for induction of apoptosis in neuronal cells: HTB11, TUNEL, Annexin V, camptothecin 15 μg/ml for 20 hr
Method: (§1) Additional evidence of apoptosis by flow cytometric detection of DNA strand breaks was obtained using the terminal deoxynucleotidyl taansferase mediated dUTP nick end labeling TUNEL) method (Gavrieli et al., J. Cell. Biol 119:493-501, 1992). Terminal deoxynucleotidyl transferase mediated dUTP nick end labeling (TUNEL) staining was performed on cell cultures treated with 3-aminopropanal, as indicated. Cells were harvested and collected by centrifugation at 1,500 rpm for 5 min. The pellets were fixed with 1×ORTHO Permeafix (Orthodiagnostics) at room temperature for 40 min. After washing with Dulbecco's phosphate-buffered saline containing 1% bovine serum albumin (PBS-BSA), cells were stained by the TUNEL method using the Oncor Apop Tag Direct Fluorescein kit (Oncor), in accordance with the manufacturer's instructions. A negative control was performed by preparing a reaction solution that was devoid of TdT. A Becton Dickinson flow cytometer was used for all analyses; five to ten thousand events (ungated) were collected according to a single color procedure.
DNA samples from HTB11 or HTB14 cells (20-30×10^6 cells) were assayed for strand breakage by resuspending harvested cells (treated with 3-AP or control) in a reaction buffer containing proteinase K, and incubating overnight at 55° C. RNase was added to a final concentration of […] and the samples were incubated at 37° C. for one hour. DNA was extracted three times with phenol/chloroform and twice with chloroform and precipitated in two volumes of chilled 100% ethanol and 0.3M sodium acetate (pH 5.2). […]
There was also no evidence of apoptosis as measured with Annexin V, a method used to detect loss of cell membrane phospholipid asymmetry that has be associated with apoptosis. […] Cells were analyzed by flow cytometry within one hour of completion of staining. The AnnexinV-FITC and PI signals were quantitated independently according to a two-color flow cytometric procedure.

[2] = test system: rat brain cortex; settings: for cell necrosis and apoptosis at the injection zone (eosin, TUNEL staining): intracortical microinjection, histology 24 hr; for protection against spermine-mediated intracortical damage, systemic administration: i.p. treatment, intracortical spermine 25 μg, infarct volume 48 hr
[3] = test system: primary rat astroglial cell cultures; test: 3-aminopropanal cytotoxicity in primary astroglial cultures; type: cell-based
[4] = test system: glial cells (HTB14); test: Apoptosis detection in glial cells (TUNEL flow cytometry, DNA fragmentation); type: cell-based, human; settings: for development of TUNEL-positivity in 3-aminopropanal-treated glial cells: iNOS inhibitor added, cytofluorography
Method: as §1
DNA samples from HTB11 or HTB14 cells (20-30×10^6 cells) were assayed for strand breakage by resuspending harvested cells (treated with 3-AP or control) in a reaction buffer containing proteinase K, and incubating overnight at 55° C. RNase was added to a final concentration of […] and the samples were incubated at 37° C. for one hour. DNA was extracted three times with phenol/chloroform and twice with chloroform and precipitated in two volumes of chilled 100% ethanol and 0.3M sodium acetate (pH 5.2). The DNA was resuspended in 50 μl of dH2O, fractionated by 1.5% agarose gel electrophoresis, and stained with SYBR Green I nucleic acid stain (Molecular Probes).
There was also no evidence of apoptosis as measured with Annexin V, a method used to detect loss of cell membrane phospholipid asymmetry that has be associated with apoptosis. Annexin V/propidium iodide (PI) staining was performed using a kit in accordance to the manufacturer's instructions (Me Apoptosis Detection Kit, R&D Systems, Minneapolis). Cells were analyzed by flow cytometry within one hour of completion of staining. The AnnexinV-FITC and PI signals were quantitated independently according to a two-color flow cytometric procedure.

[5] = test system: intracerebral TNF synthesis; test: Intracerebral TNF synthesis after central administration; type: in vivo; settings: centrally administered; data not illustrated
[6] = test system: glial cell cultures (HTB14); settings: for inhibition of 3-aminopropanal-induced cell death: HTB14, 3 hours pretreatment, then 3-aminopropanal 5 hours, MTT
[7] = test system: glial cell cultures (HTB14); test: cells; settings: Homo sapiens, read-out: 50% Effective dose (protection against 3-AP)
[8] = test system: glial cell cultures (HTB14); test: Toxicity of test compounds in parallel glial cultures incubated without 3-AP; type: cell-based, human; settings: Table V; HTB14, parallel cultures without 3-AP
Method: In an alternative embodiment of the screening assay of Example 3, various concentrations of the test compound (e.g. 10-1000 μM) are incubated with the indicator cells in presence of a fixed concentration fo 3-AP (e.g, 200 μM).

[9] = test system: cultured hippocampal neurons; test: NMDA neurotoxicity in cultured hippocampal neurons (trypan blue); type: cell-based
Method: When aminoguanidine was added to primary neuronal cultures treated with N-methy-D-aspartic acid (NMDA), no attenuation of cytotoxicity was observed (Table III). […] Cultured hippocampal neurons (12-15 days in vitro) were exposed to NMDA (500 μM) for 5 min in MEM (without serum) supplemented with glutamine (100 μM) and glycine (10 μM), rinsed in Earle's Basic Salt Solution, and incubated under standard conditions for 24 hr (37° C.). Neuronal survival was assessed microscopically, by counting a sample of cell somas for uptake vs. exclusion of trypan blue. Aminoguanidine or the non-competitive excitatory amino acid receptor antagonist, MK-801, was added just prior to NMDA and in the final rinse at the concentrations shown. Data are mean±s.e. of nine wells from three replicate experiments.

[10] = test system: neuronal cell cultures (HTB11); settings: HTB11 cells, overnight incubation
[11] = test system: polyamine oxidase; test: Polyamine oxidase activity in ischemic brain homogenates (conversion of added spermine, HPLC); type: biochemical, rat; settings: for polyamine oxidase activity in ischemic brain homogenate (FIG. 1): 1 mM added 5 minutes prior to spermine; for IC50: homogenates of ischemic brain, inhibitor added 5 minutes prior to spermine, read-out: I.C.50 for polyamine oxidase activity
Method: To measure tissue polyamine oxidase activity, brain homogenates were prepared from the anatomic region perfused by the middle cerebral artery, and total polyamine oxidase activity determined using a method described previously (Seiler and Bolkenius, Neurochem. Res. 10:529-544, 1985; Seiler et al., Med. Biol. 59:334-346, 198 1; and […] et al., J. Neurosci. Res. 28:434-441, 1991), relying on the metabolic conversion of added spermine.

[12] = target: T1, iNOS (Mus musculus, UniProt P29477); test: iNOS activity in RAW 264.7 cell lysates; type: biochemical; settings: 1 mM
T1 construct: iNOS activity measured in RAW 264.7 cell lysates; endogenous in cells; host or cells: RAW 264.7 cell lysates

[13] = test system: focal cerebral ischemia; settings: for volume of brain tissue infarcted vs vehicle-treated controls: i.p. beginning 15 minutes after onset of ischemia, total dose PICVA-25 and PICVA-27 200 mg/kg, PICVA-13 400 mg/kg
[14] = with NMDA (500 μM) 5 min, MK-801 20 μM or aminoguanidine 1000 μM, 24 hr
[15] = 25 μg in 2 μl intracortical, assessed 48 hr later

T1 sequence (P29477 whole entry): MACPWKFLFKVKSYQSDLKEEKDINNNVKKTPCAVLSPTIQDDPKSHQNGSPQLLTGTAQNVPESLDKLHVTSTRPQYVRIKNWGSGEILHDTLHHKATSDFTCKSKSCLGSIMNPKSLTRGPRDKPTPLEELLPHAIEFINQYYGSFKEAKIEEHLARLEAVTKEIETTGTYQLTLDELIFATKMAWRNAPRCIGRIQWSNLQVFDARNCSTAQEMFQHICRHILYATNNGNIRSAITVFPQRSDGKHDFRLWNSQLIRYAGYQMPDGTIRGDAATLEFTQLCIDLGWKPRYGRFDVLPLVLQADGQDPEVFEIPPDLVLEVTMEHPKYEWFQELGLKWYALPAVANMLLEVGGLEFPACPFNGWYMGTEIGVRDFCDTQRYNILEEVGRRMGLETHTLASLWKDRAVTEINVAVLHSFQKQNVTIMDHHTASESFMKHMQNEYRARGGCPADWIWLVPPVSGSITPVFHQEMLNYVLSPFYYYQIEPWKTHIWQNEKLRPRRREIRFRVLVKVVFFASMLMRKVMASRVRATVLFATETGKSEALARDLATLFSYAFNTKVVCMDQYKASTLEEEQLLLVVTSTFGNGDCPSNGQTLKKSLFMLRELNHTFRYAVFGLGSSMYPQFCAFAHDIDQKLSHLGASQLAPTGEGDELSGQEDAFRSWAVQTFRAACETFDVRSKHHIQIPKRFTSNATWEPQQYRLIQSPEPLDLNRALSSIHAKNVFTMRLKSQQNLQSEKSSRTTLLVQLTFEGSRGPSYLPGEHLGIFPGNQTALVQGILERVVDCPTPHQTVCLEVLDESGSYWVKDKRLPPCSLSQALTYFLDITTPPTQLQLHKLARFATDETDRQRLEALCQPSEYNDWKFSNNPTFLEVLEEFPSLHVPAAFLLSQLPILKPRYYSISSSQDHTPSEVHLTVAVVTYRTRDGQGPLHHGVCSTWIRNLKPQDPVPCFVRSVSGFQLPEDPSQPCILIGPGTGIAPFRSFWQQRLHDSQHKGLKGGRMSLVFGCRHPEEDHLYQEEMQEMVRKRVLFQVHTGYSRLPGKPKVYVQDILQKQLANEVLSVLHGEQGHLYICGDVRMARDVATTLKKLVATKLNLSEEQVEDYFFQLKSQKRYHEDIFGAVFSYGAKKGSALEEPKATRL

## NCCC=O [3-aminopropanal]
[1]
  induction of apoptosis in neuronal cells: did not induce apoptosis
[1]; HTB11 neurons after 3-aminopropanal treatment
  cell death by forward scatter/side scatter analysis: 55.7%
[2]
  cell necrosis and apoptosis at the injection zone (eosin, TUNEL staining): both cellular necrosis and programmed cell death
[2]; rat, in vivo
  brain damage after intracortical microinjection (TTC staining): caused significant cytotoxicity
[3]
  cytotoxic LD50: 80 ± 9 µM
[4]; 13 hours of exposure to 275 μM
  glial cells stained TUNEL-positive: 76%
[4]; HTB-14 glial cells exposed to 3-aminopropanal
  apoptosis-specific DNA fragmentation: apoptosis-specific DNA fragmentation pattern was observed
[5]
  intracerebral TNF synthesis: directly stimulated

## NC(=O)c1cc[n+](CC(=O)c2ccccc2)cc1C(N)=O [AP21, N-(2-phenyl-2-oxoethyl)-3,4-dicarboxyamide-pyridinium bromide]
[6]; read-out: 50% Effective dose (protection against 3-AP), Table V, HTB14, fixed 3-AP (e.g. 200 μM)
  EC50: 100 µM

## O=C(O)c1cc(Br)c[n+](CC(=O)c2ccccc2)c1.[Br-] [AP22, N-(2-phenyl-2-oxoethyl)-3-bromo-5-carboxypyridinium bromide]
[7]
  EC50: 199 µM
[8]
  50% Toxic dose: 1 mM

## CNC(=N)NCCC[C@H](N)C(=O)O [L-NMMA, L-N^G-monomethylarginine]
[4]
  development of TUNEL-positivity in 3-aminopropanal-treated glial cells: failed to attenuate

## C[C@]12N[C@H](Cc3ccccc31)c1ccccc12 [MK-801]
[9]; [14]
  Neurotoxicity (% dead): 8 ± 3 % dead

## CN[C@H](CC(=O)O)C(=O)O [NMDA, N-methy-D-aspartic acid]
[9]; NMDA (500 μM) alone, 5 min exposure, 24 hr
  Neurotoxicity (% dead): 88 ± 4 % dead

## N=C(N)NN [aminoguanidine]
[10]
  LD50 for 3-aminopropanal in the presence of the PAO inhibitor vs without: similar
[2]; given intracortically simultaneously with spermine
  protection against intracortical spermine-mediated cell death, intracortical administration: conferred significant protection
[2]
  protection against spermine-mediated intracortical damage, systemic administration: conferred significant protection
[2]; intracortical 3-aminopropanal
  effect on direct cytotoxicity of intracortical 3-aminopropanal: failed to significantly attenuate
[2]; intracortical spermine
  effect on spermine-induced cell necrosis and apoptosis (histology): significantly inhibited
[9]; [14]
  Neurotoxicity (% dead): 79 ± 4 % dead
[9]; without NMDA, aminoguanidine 1000 μM alone
  Neurotoxicity (% dead): 7 ± 2 % dead
[4]
  development of TUNEL-positivity in 3-aminopropanal-treated glial cells: failed to attenuate
[11]
  polyamine oxidase activity in ischemic brain homogenate (FIG. 1): inhibited
  IC50: 400 µM

## CC[C@@]1(O)C(=O)OCc2c1cc1n(c2=O)Cc2cc3ccccc3nc2-1 [camptothecin]
[1]
  induction of apoptosis in neuronal cells: Apoptosis was induced

## CCN(CC)CCCC(C)Nc1ccnc2cc(Cl)ccc12 (stereo not shown) [chloroquine]
[12]
  iNOS activity: 11800±900 DPM/mg protein
[13]; rat, in vivo
  systemic homeostatic responses to cerebral ischemia (blood pressure, heart rate, body temperature, arterial blood gases): did not significantly alter
[2]
  protection against spermine-mediated intracortical damage, systemic administration: conferred significant protection
[11]
  polyamine oxidase activity in ischemic brain homogenate (FIG. 1): inhibited
  IC50: 40 µM

## O=C(C[n+]1ccsc1)c1ccccc1.[Br-] [p25, 3-(2-phenyl-2-oxoethyl)-thiazolium bromide]
[13]
  volume of brain tissue infarcted vs vehicle-treated controls: significantly reduced
[13]; rats with focal cerebral ischemia
  mortality associated with treatment in the in vivo screening tests: 38%

## O=C(C[n+]1ccccc1)c1ccccc1.[Br-] [p27a, N-(2-phenyl-2-oxoethyl)-pyridinium bromide]
[13]; Lewis, rat, in vivo
  mortality associated with treatment in the in vivo screening tests: 25%
[13]
  volume of brain tissue infarcted vs vehicle-treated controls: significantly reduced
[7]
  EC50: 425 µM
[8]
  50% Toxic dose: 5 mM

## NCCCCN [putrescine]
[2]; [15]
  brain damage after intracortical microinjection (TTC staining): cell death was not observed
[2]
  cell necrosis and apoptosis at the injection zone (eosin, TUNEL staining): not observed

## NCCCCNCCCN [spermidine]
[2]; [15]
  brain damage after intracortical microinjection (TTC staining): brain tissue damage

## NCCCNCCCCNCCCN [spermine]
[2]
  cell necrosis and apoptosis at the injection zone (eosin, TUNEL staining): caused cell necrosis and apoptosis
[2]; rat, in vivo
  brain damage after intracortical microinjection (TTC staining): brain tissue damage

## Ac-DEVD-CHO
[6]
  inhibition of 3-aminopropanal-induced cell death: not

## Ac-YVAD-CMK
[6]
  inhibition of 3-aminopropanal-induced cell death: conferred dose-dependent inhibition
